The source of these data is publication PMC12457685 (Scientific Reports, 2025).

The target of one test is SARS-CoV-2 Alpha RBD (Severe acute respiratory syndrome coronavirus 2, UniProt P0DTC2). As to the kind of experiment: biochemical. It counts as binding.
The next test has as its target SARS-CoV-1 RBD (Severe acute respiratory syndrome coronavirus, UniProt P59594). As to the kind of experiment: biochemical. The class given is binding.
Test [1] deals with SARS-CoV-1 spike RBD RBD (Severe acute respiratory syndrome coronavirus), P59594. As to the kind of experiment: SPR. Conditions: modification not given.

Several values for one entry are separate records, joined by “and”; a condition that tells them apart may be missing. Identical values can stand only once. Non-standard residues stand in square brackets, D forms with d. Residues, ends and D or L forms follow the SMILES beside them. Pra = C#CC[C@H](N)C(=O)O

As for `C#CC[C@H](NC(=O)[C@H](CC(C)C)NC(=O)[C@H](CCCCN)NC(=O)[C@@H](NC(=O)[C@@H](NC(=O)[C@H](CC(C)C)NC(=O)[C@H](CC(N)=O)NC(=O)[C@H](Cc1ccc(O)cc1)NC(=O)[C@@H](NC(=O)[C@H](CCC(=O)O)NC(=O)[C@H](Cc1ccc(O)cc1)NC(=O)[C@H](CC(C)C)NC(=O)[C@@H]1CCCN1C(=O)[C@H](Cc1ccc(O)cc1)NC(=O)[C@H](CCSC)NC(=O)[C@H](CCC(N)=O)NC(=O)[C@H](C)NC(=O)[C@H](CC(C)C)NC(=O)[C@@H](NC(=O)[C@H](CO)NC(=O)[C@@H](N)CCC(N)=O)[C@@H](C)O)[C@@H](C)CC)[C@@H](C)O)C(C)C)C(N)=O` [a2] (H-QSTLAQMYPLYEIYNLTVKL[Pra]-NH2), the Kd at SARS-CoV-2 Alpha RBD came to 89 ± 5 nM; at SARS-CoV-1 RBD, 21 ± 5 nM. Besides, the kon on SARS-CoV-2 Alpha RBD (read-out: ka) was found to be 59300 M⁻¹ s⁻¹; on SARS-CoV-1 RBD (read-out: ka), 85900 M⁻¹ s⁻¹. Besides, the ka on SARS-CoV-2 Alpha RBD (spr) is 5,66e4 M-1s-1 and 6,08e4 M-1s-1.

B1: ACE2 epitope a2 (peptide)
chain: QSTLAQMYPLYEIYNLTVKL
Regarding B1, the Kd in test [1] stood at 21 nM. This lies in the double-digit nanomolar range.

One may read the Kd as a measure of binding affinity in units of concentration. Low values mean tighter binding, high ones weaker binding.
